Experimental data from patent US4287190A, “Complexes of bivalent copper” (priority 1979, dated 1981).

Assays:
Carrageenan paw oedema = assay: Carrageenan-induced paw oedema in rats, topically applied copper-salicylates; details: topical
Method: All materials applied to shaved dorsal skin
in vehicle (= DMSO--glycerol), 4:1 v/v, 5 ml/kg except as
*Vehicle = ethanolglycerol (4:1 v/v)

Zymosan paw oedema = assay: Zymosan-induced paw oedema in rats, topically applied copper-salicylates; details: topical, DMSO-glycerol 4:1 v/v, 5 ml/kg
[1] = test system: polyarthritis induced in rats with Mycobacterium tuberculosis in squalane; assay: Polyarthritis induced with Mycobacterium tuberculosis in squalane; format: in vivo; details: Cu[H Sal]2. DMSO formulation
[2] = test system: artificially induced inflammation in rats (sodium carrageenan); assay: Carrageenan foot swelling after topical treatment (Example 5, FIG. 2); format: in vivo, Male Wistar rats; details: topical, 154, 231, 462 and 770 mg, about 6 hours before carrageenan
Method: Male Wistar rats (average weight 250 g) were anaesthetised with diethyl ether and an area of c. 20 sq.cm was shaven high on their backs. The rats were then separated into 7 groups. Group 1, the control rats were not treated. Group 2 rats were treated by the application of a mixture of alcohol and glycerol (4:1), the carrier used for the compound Cu[H Sal]2. C2 H5 OH. Group 3 rats were treated with a 7% w/v solution of salicylic acid in a mixture of alcohol and glycerol (4:1). Group 4, 5, 6 and 7 rats were treated with amounts of Cu[H Sal]2. C2 H5 OH composition prepared according to example 3 containing 154 mg, 231 mg, 462 mg, and 770 mg respectively, of Cu[H Sal]2. C2 H5 OH.
About 6 hours after the topical treatment of the rats, inflammation was induced in a foot of each rat in each of the groups by the injection of 0.1 ml of 1% saline solution of sodium carrageenan into a foot pad of each rat. The inflammation of the feet of the rats in each group was then monitored by the swelling of the feet with a micrometer screw-gauge.
The results are shown in FIG. 2 wherein the curves represent the increase in paw thickness of the rats with time after the injection of the inflammatory agent. The curves 1 to 7 represent the swelling of the paws of the rats of groups 1 to 7 respectively.

[3] = Wistar, 2 Hour, DMSO-glycerol 4:1 v/v, 5 ml/kg
[4] = Wistar, 4 Hour, DMSO-glycerol 4:1 v/v, 5 ml/kg
[5] = DA × Lewis, 2 Hour, DMSO-glycerol 4:1 v/v, 5 ml/kg
[6] = DA × Lewis, 4 Hour, DMSO-glycerol 4:1 v/v, 5 ml/kg

Row | Compound | % Inhibition of paw oedema induced with Carrageenan (Carrageenan paw oedema; [3]) [%] | % Inhibition of paw oedema induced with Carrageenan (Carrageenan paw oedema; [4]) [%] | % Inhibition of paw oedema induced with Zymosan (Zymosan paw oedema; DA × Lewis, 2 Hour) [%] | % Inhibition of paw oedema induced with Zymosan (Zymosan paw oedema; DA × Lewis, 4 Hour) [%] | % Inhibition of paw oedema induced with Zymosan (Zymosan paw oedema; Wistar, 1 Hour) [%] | % Inhibition of paw oedema induced with Zymosan (Zymosan paw oedema; Wistar, 2 Hour) [%] | effect on the progress of polyarthritis [1] | % Inhibition of paw oedema induced with Carrageenan (Carrageenan paw oedema; [5]) [%] | % Inhibition of paw oedema induced with Carrageenan (Carrageenan paw oedema; [6]) [%] | anti-inflammatory effect (increase in paw thickness with time) [2] | % Inhibition of paw oedema induced with Carrageenan (Carrageenan paw oedema; Wistar, 2 Hour, ethanol-glycerol 4:1 v/v, 5 ml/kg) [%] | % Inhibition of paw oedema induced with Carrageenan (Carrageenan paw oedema; Wistar, 2 Hour, ethanol-glycerol 4:1 v/v, 15 ml/kg) [%] | % Inhibition of paw oedema induced with Carrageenan (Carrageenan paw oedema; Wistar, 4 Hour, ethanol-glycerol 4:1 v/v, 5 ml/kg) [%] | % Inhibition of paw oedema induced with Carrageenan (Carrageenan paw oedema; Wistar, 4 Hour, ethanol-glycerol 4:1 v/v, 15 ml/kg) [%]
1 | CC(=O)[O-].CC(=O)[O-].[Cu+2] [Cu(OAc)] | 04 | 11 | 14 | 04 | 12 | 12 | – | – | – | – | – | – | – | –
2 | CS(C)=O.O=C([O-])c1ccccc1O.O=C([O-])c1ccccc1O.[Cu+2] [Cu[H Sal]2 . DMSO, copper salicylate DMSO] | 46 | 53 | 36 | 22 | 43 | 21 | effective on the progress of polyarthritis | 47 | 39 | – | – | – | – | –
3 | O=C(O)c1ccccc1O [Salicylic acid (alone), Salicylic acid] | 14 | 18 | -08 | -05 | 22 | 16 | – | 44 | 32 | – | – | – | – | –
4 | copper salicylate ethanolate [Cu[H Sal]2. C2 H5 OH] | – | – | – | – | – | – | – | – | – | clearly shows the anti-inflammatory effect | 24 | 58 | 32 | 53
